According to the NIST ThermoML archive (doi:10.1016/j.jct.2011.08.017):

Experiments:
[1] = Molar enthalpy of transition or fusion; conditions: Crystal; DSC
[2] = for vapor or sublimation pressure: Closed cell (Static) method; for Normal melting temperature: DTA

Cn1ccnc1 [1-methylimidazole]
Conditions | Molar enthalpy of transition or fusion [kcal/mol]
[1] | 2.94

[2]
Conditions | vapor or sublimation pressure [kPa]
255.52 K, Crystal | 0.00122
256.47 K, Metastable liquid | 0.00184
256.5 K, Crystal | 0.00139
257.48 K, Crystal | 0.00157
257.48 K, Metastable liquid | 0.00204
258.55 K, Metastable liquid | 0.00226
258.57 K, Crystal | 0.00177
259.5 K, Metastable liquid | 0.00249
259.53 K, Crystal | 0.00201
260.46 K, Metastable liquid | 0.00273
260.48 K, Crystal | 0.00225
261.42 K, Metastable liquid | 0.00301
261.45 K, Crystal | 0.00255
262.38 K, Metastable liquid | 0.0033
262.41 K, Crystal | 0.00277
263.36 K, Metastable liquid | 0.00362
263.37 K, Crystal | 0.00317
264.36 K, Crystal | 0.00356
265.16 K, Metastable liquid | 0.00425
265.35 K, Crystal | 0.004
267.28 K, Metastable liquid | 0.00515
269.27 K, Metastable liquid | 0.00618
271.23 K, Liquid | 0.00739
273.22 K, Liquid | 0.00866
275.16 K, Liquid | 0.01042
277.18 K, Liquid | 0.01215
281.14 K, Liquid | 0.01675
285.09 K, Liquid | 0.02306
287.07 K, Liquid | 0.02725
289.06 K, Liquid | 0.03146
291.04 K, Liquid | 0.03655
293.04 K, Liquid | 0.04224
295.03 K, Liquid | 0.049
297.03 K, Liquid | 0.05608
298.98 K, Liquid | 0.06498
300.98 K, Liquid | 0.07451
302.96 K, Liquid | 0.0852
304.98 K, Liquid | 0.09635

Conditions | Normal melting temperature [°C]
[2], Crystal | -4.5

Cn1cnc(C#N)c1C#N [1-methyl-1H-imidazole-4,5-dicarbonitrile]
Conditions | Molar enthalpy of transition or fusion [kcal/mol]
[1] | 3.54

[2]
Conditions | vapor or sublimation pressure [kPa]
337.86 K, Crystal | 0.00034
339.38 K, Crystal | 0.00039
340.86 K, Crystal | 0.00046
342.35 K, Crystal | 0.00053
343.84 K, Crystal | 0.00061
345.33 K, Crystal | 0.0007
346.81 K, Crystal | 0.00082
348.31 K, Crystal | 0.00094
349.78 K, Crystal | 0.00107
351.29 K, Crystal | 0.00124
352.76 K, Crystal | 0.00142
354.26 K, Crystal | 0.00163
355.73 K, Crystal | 0.00186
355.76 K, Metastable liquid | 0.00198
357.23 K, Crystal | 0.00212
357.23 K, Metastable liquid | 0.00221
358.72 K, Crystal | 0.00242
358.77 K, Metastable liquid | 0.00249
360.71 K, Metastable liquid | 0.00284
362.59 K, Liquid | 0.0033
364.68 K, Liquid | 0.00381
366.64 K, Liquid | 0.0044
368.64 K, Liquid | 0.00506
370.6 K, Liquid | 0.00584
372.61 K, Liquid | 0.0067
374.56 K, Liquid | 0.00765
376.58 K, Liquid | 0.00875
378.53 K, Liquid | 0.01
380.52 K, Liquid | 0.01138
382.49 K, Liquid | 0.01298
384.5 K, Liquid | 0.01474
386.44 K, Liquid | 0.01668
388.45 K, Liquid | 0.01889
390.43 K, Liquid | 0.02143
392.4 K, Liquid | 0.0241
394.36 K, Liquid | 0.02715
396.35 K, Liquid | 0.0304
398.31 K, Liquid | 0.03419
400.31 K, Liquid | 0.03815
402.27 K, Liquid | 0.04273
404.27 K, Liquid | 0.04766
406.23 K, Liquid | 0.05325

Conditions | Normal melting temperature [°C]
[2], Crystal | 87.1
